# Source: publication PMC5786306, “An AKAP-Lbc-RhoA interaction inhibitor promotes the translocation of aquaporin-2 to the plasma membrane of renal collecting duct principal cells” (PLoS ONE, 2018)
# “And” between values parts separate entries of the source, which are not always exact repeats. Equal entries are not always repeated.
# How the values were obtained:
# Type in all cases: binding
# [1] = molecular target: T1, interaction of the DH domain of AKAP-Lbc and RhoA (Homo sapiens, UniProt P61586); assay: Alpha screen assay
# T1 construct: The proteins used were N-terminally His6-tagged AKAP-Lbc-DH domain
# Protocol: Assays were performed according to the manufacturer’s protocol (PerkinElmer) with minor modifications. All reagents were diluted in buffer containing 25 mM Hepes, pH 7.4, 100 mM NaCl, 0.1% bovine serum albumin, 0.05% CHAPS and 50 μM GDP and allowed to equilibrate to room temperature before addition to plates. […] The proteins used were N-terminally His6-tagged AKAP-Lbc-DH domain and C-terminally biotinylated RhoA. […] 8 μL of assay buffer containing donor and acceptor beads at 1:400 dilution was then added, the plate was incubated in the dark for 60 min and then read on a PheraStar FS plate reader (BMG Labtech, Germany) using an AlphaScreen^TM 680 excitation/570 emission filter set.
# 11.6 μL of a solution containing 100 nM RhoA and 200 nM AKAP13 in assay buffer was added and incubated with the compounds for 30 min at RT in foil-sealed plates. 8 μL of assay buffer containing donor and acceptor beads at 1:400 dilution was added. The plate was incubated in the dark for 60 min and then read on a PheraStar FS plate reader.
# 647-RhoA = molecular target: T2, 647-RhoA (Homo sapiens, UniProt P61586); assay: Microscale thermophoresis (MST) with 647-RhoA
# T2 construct: made in house
# Protocol: (§1) The final concentration of GFP-AKAP-Lbc/DHPH was set to 150 nM, 95% LED and 80% MST laser power. […] The samples were incubated in the dark for 1 h incubation at room temperature, and measured with 30 sec laser-on and 5 sec laser-off time at a Monolith NT.115 device (NanoTemper). Measured fluorescence (F) was normalised (Fhot/Fcold = Fsteady state/Finitial state, Fig 3). Values of thermophoresis + T-jump were related to average of each measurement row (16 capillaries). Final values are given as ‰.
# (§2) Fig 4 The Scaff10 derivative Scaff10-8 binds to RhoA but not to the DHPH domain of AKAP-Lbc. (A-D) Microscale thermophoresis (MST) takes advantage of the phenomenon of directed movement of particles in a temperature gradient. Binding events lead to changes in the hydration shell of biomolecules and a relative change of movement of the molecular complex along a temperature gradient. Using such changes, binding affinities can be determined. MST assays were carried out with (A) the recombinant DHPH domain of AKAP-Lbc fused with GFP and RhoA as a ligand and (B) fluorescent 647-RhoA and the His-tagged AKAP-Lbc/DHPH domain as a ligand. (C) MST assays for the analysis of the binding of Scaff10-8 to 647-RhoA. Upper panels: The concentration of fluorescent 647-RhoA remained constant and Scaff10-8 (left) and Scaff10-7 as a negative control (right) were titrated in increasing concentrations. Lower panels: Values of fluorescence corresponding to upper panels. (D) MST assay showing no binding of Scaff10-8 or Scaff10-7 to GFP-DHPH. Upper panels: The concentration of fluorescent GFP-AKAP-Lbc/DHPH remained constant and Scaff10-8 (left) and Scaff10-7 (right) were titrated in increasing concentrations. Lower panels: Values of fluorescence corresponding to upper panels. […] F norm = normalized fluorescence (fluorescence steady state/fluorescence initial state) indicated in ‰. n = 3–5. Mean ± SEM. […] The ligand protein named in each panel heading is used as the substance label, and it is uncertain whether these count as substances.
# GFP-AKAP-Lbc/DHPH = molecular target: T3, GFP-AKAP-Lbc/DHPH (Homo sapiens, UniProt Q12802); assay: Microscale thermophoresis (MST) with GFP-AKAP-Lbc/DHPH; conditions: result in words
# T3 construct: His6-AKAP-Lbc/DHPH (aa 1972–2342 of human AKAP-Lbc; NP_006729.4); made in house; host or cells: HEK293-EBNA cells (transient transfection, pTT5)
# T3 sequence (Q12802 1972-2342 isoform Q12802-2): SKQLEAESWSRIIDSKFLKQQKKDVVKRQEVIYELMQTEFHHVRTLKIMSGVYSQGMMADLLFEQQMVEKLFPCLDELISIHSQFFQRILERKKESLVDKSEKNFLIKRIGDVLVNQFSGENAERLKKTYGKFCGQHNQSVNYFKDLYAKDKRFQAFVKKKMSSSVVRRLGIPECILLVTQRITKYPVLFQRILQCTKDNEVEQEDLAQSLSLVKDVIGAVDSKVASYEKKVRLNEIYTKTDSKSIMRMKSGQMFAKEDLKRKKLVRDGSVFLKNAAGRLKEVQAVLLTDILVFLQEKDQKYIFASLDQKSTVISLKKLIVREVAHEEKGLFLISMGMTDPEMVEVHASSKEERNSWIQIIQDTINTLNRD
# Protocol: as §1, §2
# T2 sequence (P61586 whole entry): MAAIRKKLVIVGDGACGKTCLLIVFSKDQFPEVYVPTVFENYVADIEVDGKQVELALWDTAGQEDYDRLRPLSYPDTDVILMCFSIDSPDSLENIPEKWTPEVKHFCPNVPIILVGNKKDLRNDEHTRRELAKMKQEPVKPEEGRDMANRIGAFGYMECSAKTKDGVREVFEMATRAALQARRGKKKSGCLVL
# T1 sequence (P61586 whole entry, the tested form may be a part): as the sequence (P61586 whole entry) above
compound,measurement,setting,value
"CCOC(=O)CCc1c(C)c2ccc(OCC(=O)c3ccc(OC)cc3)cc2oc1=O [Scaff10-7, Ethyl 3-[7-[2-(4-methoxyphenyl)-2-oxo-ethoxy]-4-methyl-2-oxo-chromen-3-yl]propanoate]",inhibitory effect in Alpha screen,[1]; result in words,without inhibitory effects
same,binding to 647-RhoA,647-RhoA; result in words,did not bind
same,binding to GFP-AKAP-Lbc/DHPH,GFP-AKAP-Lbc/DHPH,no binding
"COc1ccc(-c2coc3cc4oc(=O)c(CCC(=O)O)c(C)c4cc23)cc1 [Scaff10-8, 3-[3-(4-Methoxyphenyl)-5-methyl-7-oxo-furo[3,2-g]chromen-6-yl] propanoic acid]",IC50,[1],42 µM
same,Kd,"647-RhoA; KD for binding to 647-RhoA, mean ± SEM, n = 3–5",20 µM and 20.2 µM
same,binding to GFP-AKAP-Lbc/DHPH,GFP-AKAP-Lbc/DHPH,no binding
